Publication PMC2853924 (Journal of medicinal chemistry, 2010)
Like-named read-outs stand apart in the source and are kept apart here.

Legend:
σ1 receptor = σ1 receptor (Cavia porcellus, UniProt Q60492); format: binding, guinea pig
σ2 receptor = target: T1, σ2 receptor (Rattus norvegicus, UniProt Q5U3Y7); test: σ2 receptor binding assay, [3H]DTG, rat liver membrane homogenates
T1 sequence (Q5U3Y7 1-176): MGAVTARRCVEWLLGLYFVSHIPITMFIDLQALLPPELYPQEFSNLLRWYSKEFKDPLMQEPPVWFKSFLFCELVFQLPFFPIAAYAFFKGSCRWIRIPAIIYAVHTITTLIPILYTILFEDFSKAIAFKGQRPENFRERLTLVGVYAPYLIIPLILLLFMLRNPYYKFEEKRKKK

Torpedo VAChT [1] = target: T2, Torpedo VAChT (Tetronarce californica, UniProt P81721); conditions: read-out: VAChT (Ki [nM]), cited from earlier work
T2 sequence (P81721 1-515): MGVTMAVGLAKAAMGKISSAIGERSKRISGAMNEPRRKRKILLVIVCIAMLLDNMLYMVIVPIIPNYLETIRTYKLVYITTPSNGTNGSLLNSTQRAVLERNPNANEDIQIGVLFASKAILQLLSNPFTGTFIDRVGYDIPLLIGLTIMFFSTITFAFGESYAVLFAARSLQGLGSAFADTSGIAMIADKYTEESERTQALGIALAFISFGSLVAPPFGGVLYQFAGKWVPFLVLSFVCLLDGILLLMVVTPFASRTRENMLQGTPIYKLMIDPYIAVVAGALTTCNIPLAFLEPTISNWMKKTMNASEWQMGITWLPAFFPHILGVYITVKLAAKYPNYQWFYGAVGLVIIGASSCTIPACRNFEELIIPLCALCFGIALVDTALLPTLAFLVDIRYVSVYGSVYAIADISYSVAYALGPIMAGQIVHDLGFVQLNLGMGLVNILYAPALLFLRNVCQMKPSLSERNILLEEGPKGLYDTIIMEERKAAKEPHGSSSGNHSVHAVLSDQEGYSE

Torpedo VAChT [2] = target: T2, Torpedo VAChT; conditions: for VAChT/sigma selectivity index (selectivity ratio): Ki (σ1 or σ2)/Ki (VAChT); for VAChT/σ selectivity (in words): based on selectivity index

Chain of σ1 receptor (Q60492 whole entry): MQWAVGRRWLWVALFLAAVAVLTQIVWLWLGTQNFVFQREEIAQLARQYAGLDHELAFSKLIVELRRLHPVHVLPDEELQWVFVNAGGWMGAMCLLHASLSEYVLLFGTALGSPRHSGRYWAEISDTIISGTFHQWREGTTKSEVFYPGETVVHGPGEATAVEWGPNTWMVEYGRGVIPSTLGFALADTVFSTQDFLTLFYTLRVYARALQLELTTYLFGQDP

Cl.O=C(C1CCN([C@@H]2Cc3ccccc3C[C@H]2O)CC1)N1CCCCC1 (relative stereo) [Compound 34a, Trans-3-[4-(piperidyl)carbonylpiperidyl]-2-hydroxy-1,2,3,4-tetrahydronaphthalene hydrochloride]
Selectivity Index Ki-σ1/Ki-VAChT (σ1 receptor; Ki (σ1)/Ki (VAChT)): >32.3
Selectivity Index Ki-σ2/Ki-VAChT (σ2 receptor): >32.3

O=C(c1ccc(F)cc1)C1CCN([C@@H]2Cc3ccccc3C[C@H]2O)CC1 (relative stereo) [Compound 28b, trans-3-[4-(4-fluorobenzoyl)piperidinyl]-2-hydroxy-1,2,3,4-tetrahydronaphthalene]
Ki (Torpedo VAChT [1]): 2.7 ± 0.4 nM

Cl.Nc1cccc2c1C[C@@H](N1CCC(C(=O)c3ccc(Br)cc3)CC1)[C@H](O)C2 [Compound 30c, 5-Amino-3-[4-(p-bromobenzoyl)piperidinyl]-2-hydroxy-1,2,3,4,-tetrahydronaphthalene hydrochloride]
VAChT/sigma selectivity index (selectivity ratio) (Torpedo VAChT [2]): greater than 500

Cl.O=C(c1ccc(I)s1)C1CCN([C@@H]2Cc3ccccc3C[C@H]2O)CC1 (relative stereo) [Compound 28h, trans-3-[4-(5-Iodothienylcarbonyl)piperidinyl]-2-hydroxy-1,2,3,4-tetrahydronaphthalene hydrochloride]
VAChT/σ selectivity (in words) (Torpedo VAChT [2]): high VAChT/σ selectivity

CCOC(=O)C1CCN([C@@H]2Cc3ccccc3C[C@H]2O)CC1.Cl (relative stereo) [Compound 34e, trans-3-[4-Ethoxycarbonylpiperidyl]-2-hydroxy-1,2,3,4-tetrahydronaphthalene hydrochloride]
Selectivity Index Ki-σ1/Ki-VAChT (σ1 receptor; Ki (σ1)/Ki (VAChT)): >14.6
Selectivity Index Ki-σ2/Ki-VAChT (σ2 receptor): >14.6

Cl.O=C(C1CCN([C@@H]2Cc3ccccc3C[C@H]2O)CC1)N1CCC(Cc2ccccc2)CC1 (relative stereo) [Compound 34c, trans-3-[4-(4-Benzylpiperidyl)carbonylpiperidyl]-2-hydroxy-1,2,3,4-tetrahydronaphthalene hydrochloride]
Selectivity Index Ki-σ2/Ki-VAChT (σ2 receptor): >416.7

Cl.Nc1cccc2c1C[C@@H](O)[C@H](N1CCC(C(=O)c3cccs3)CC1)C2 [Compound 31f, 8-Amino-3-[4-(thien-2-yl)carbonylpiperidyl]-2-hydroxy-1,2,3,4-tetrahydronaphthalene hydrochloride]
Selectivity Index Ki-σ1/Ki-VAChT (σ1 receptor): >7.5
Selectivity Index Ki-σ2/Ki-VAChT (σ2 receptor): >7.5

Cl.Nc1cccc2c1C[C@@H](N1CCC(C(=O)c3ccc(F)cc3)CC1)[C@H](O)C2 [Compound 30b, 5-Amino-3-[4-(p-fluorobenzoyl)piperidinyl]-2-hydroxy-1,2,3,4,-tetrahydronaphthalene hydrochloride]
Selectivity Index Ki-σ1/Ki-VAChT (σ1 receptor): >416.7
Selectivity Index Ki-σ2/Ki-VAChT (σ2 receptor): >416.7

Cl.Nc1cccc2c1C[C@@H](N1CCC(C(=O)c3ccc(Br)s3)CC1)[C@H](O)C2 [Compound 30g, 5-Amino-3-[4-(5-bromothien-2-yl)carbonylpiperidinyl]-2-hydroxy-1,2,3,4-tetrahydronaphthalene hydrochloride]
Selectivity Index Ki-σ1/Ki-VAChT (σ1 receptor): >2439.0
Selectivity Index Ki-σ2/Ki-VAChT (σ2 receptor): >2439.0
VAChT/sigma selectivity index (selectivity ratio) (Torpedo VAChT [2]): greater than 1000

Cl.O=C(c1ccccc1)C1(c2ccccc2)CCN([C@@H]2Cc3ccccc3C[C@H]2O)CC1 (relative stereo) [Compound 22a, trans-3-(4-Benzoyl-4-phenylpiperidinyl)-2-hydroxy-1,2,3,4-tetrahydronaphthalene hydrochloride]
fold less potent at VAChT than benzovesamicol (2) (Torpedo VAChT [2]; relative to benzovesamicol (2)): 30 fold

Cl.O=C(c1ccc(Br)s1)C1CCN([C@@H]2Cc3ccccc3C[C@H]2O)CC1 (relative stereo) [Compound 28g, trans-3-[4-(5-Bromothienylcarbonyl)piperidinyl]-2-hydroxy-1,2,3,4-tetrahydronaphthalene hydrochloride]
VAChT/σ selectivity (in words) (Torpedo VAChT [2]): high VAChT/σ selectivity

Nc1cccc2c1CC(N1CCC(c3ccccc3)CC1)C(O)C2 (stereo not shown) [Compound 3, reference compound]
Ki (Torpedo VAChT [1]; Torpedo synaptic vesicles): 0.0065 ± 0.0005 nM

Cl.O=C(c1ccccc1)C1(c2ccccc2)CCN([C@@H]2CCCC[C@H]2O)CC1 [Compound 20, 2-(4-Benzoyl-4-phenylpiperidinyl)cyclohexanol hydrochloride]
fold lower affinity for VAChT than vesamicol (1) (Torpedo VAChT [2]; relative to vesamicol (1)): 35 fold

Cl.O=C(C1CCN([C@@H]2Cc3ccccc3C[C@H]2O)CC1)N1CCC(c2ccccc2)CC1 (relative stereo) [Compound 34b, trans-3-[4-(4-Phenylpiperidyl)carbonylpiperidyl]-2-hydroxy-1,2,3,4-tetrahydronaphthalene hydrochloride]
Selectivity Index Ki-σ2/Ki-VAChT (σ2 receptor): >483.1

Cl.O=C(C1CCN([C@@H]2Cc3ccccc3C[C@H]2O)CC1)N1CCN(Cc2ccccc2)CC1 (relative stereo) [Compound 34d, trans-3-[4-(4-Benzylpiperazinyl)carbonylpiperidyl]-2-hydroxy-1,2,3,4-tetrahydronaphthalene hydrochloride]
Selectivity Index Ki-σ2/Ki-VAChT (σ2 receptor): >480.8
VAChT/σ selectivity (in words) (Torpedo VAChT [2]): moderate selectivity

Cl.O=C(c1ccc(I)s1)C1CCN([C@@H]2CCCC[C@H]2O)CC1 [Compound 27h, 2-[4-(5-Iodothien-2-yl)carbonylpiperidinyl]cyclohexanol hydrochloride]
affinity for σ1 receptors (class in words) (σ1 receptor): high (high (Ki = 1–10 nM))

Cl.Nc1cccc2c1C[C@@H](N1CCC(C(=O)c3cccs3)CC1)[C@H](O)C2 [Compound 30f, 5-Amino-3-[4-(thien-2-yl)carbonylpiperidyl]-2-hydroxy-1,2,3,4-tetrahydronaphthalene hydrochloride]
Selectivity Index Ki-σ1/Ki-VAChT (σ1 receptor; Ki (σ1)/Ki (VAChT)): >204.1
Selectivity Index Ki-σ2/Ki-VAChT (σ2 receptor): >204.1
